Assay results as given in patent US12162934B2, “Gremlin-1 antagonist for the prevention and treatment of cancer” (UCB BIOPHARMA SRL, priority 2018, dated 2024).

Key:
human Gremlin = target: T1, human Gremlin (Homo sapiens, UniProt O60565); test: Hek-Id1 reporter gene assay: anti-Gremlin-1 antibodies restoring BMP signalling blocked by human Gremlin; format: cell-based; details: 10-fold excess and 80% inhibition Gremlin-1 concentration
T1 sequence (O60565 25-184): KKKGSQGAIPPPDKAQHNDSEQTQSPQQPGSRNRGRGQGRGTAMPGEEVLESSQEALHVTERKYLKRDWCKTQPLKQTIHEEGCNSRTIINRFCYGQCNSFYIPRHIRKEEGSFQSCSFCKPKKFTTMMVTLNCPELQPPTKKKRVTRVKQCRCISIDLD
From the text: The Hek Id1 reporter gene assay uses Clone 12 Hek293-Id1 reporter cells. This cell line was stably transfected with Id1 transcription factor. Id1 is a transcription factor in the BMP signalling pathway. Gremlin is known to bind BMPs prevent binding to their receptors reducing the luciferase signal from the reporter gene. Therefore, using this reporter assay, it is possible to screen anti-Gremlin antibodies and see if there are any that block the interaction of Gremlin with BMPs. A restoration of the luciferase signal is seen in these cells if there is a blocking of this interaction.
Clone 12 cells were cultured in DMEM containing 10% FCS, 1× L-Glutamine & 1× NEAA. […]
The cells were washed in PBS, lifted off using cell dissociation buffer, spun and counted before being seeded at 5×10^4/well in 70 μl (Density of 7.14×10^5/ml). […]
Post incubation, 30 μl of sample was transferred per well of assay plate and incubated for 20-24 hours before measuring luminescence signal.
Cell Steady Glo was thawed in advance at room temperature. […] Luciferase signal was detected by addition of cell steady glo reagent (100 μl) for 20 minutes on shaker at room temperature and measuring luminescence using cell titre glo protocol on Synergy 2. […]
The percentage of inhibition from dose response assays was calculated based on the maximum and minimum signals in the assay and the data fitted using 4 parameter logistical fit. […]

[1] = system: intestinal epithelial pSMAD1,5 signalling; test: Western blot of intestinal epithelial pSMAD1,5 in treated Vil1-Grem1 animals; format: in vivo, mouse
Description: Western blotting. Isolation of colon epithelium cells was carried out by incubating a 2 cm long piece of tissue with 30 mM EDTA for 2 h with agitation at 4° C. Pelleted epithelial cells were lysed RIPA lysis buffer with the addition of protease inhibitors (Complete Mini, Roche) and phosphatase inhibitors (PhosSTOP, Roche). All lysates were quantified using the BCA assay (Thermo Scientific), […] was diluted in an appropriate amount of 4× loading dye (Invitrogen) and denatured at 95° C. for 5 minutes. Western blotting was done with the NuPAGE Gel system, (Invitrogen) according to manufacturer's protocol. Briefly, denatured lysates were loaded onto a 4-12% gel and run at 100 V for at least 2 hours. The gels were transferred onto PVDF membrane (Immobilon P, Millipore) in a semi-dry tank (120 mA for at least 2 hours) and blocked by incubating for 1 hour at room temperature in TBS containing 10% milk (Marvel). […] After further washes, the blots were incubated in ECL reagents (GE healthcare) and chemiluminescence was detected by chemiluminescence film (GE Healthcare).
Epithelial BMP activity can be measured by phosphorylation of the SMAD 1,5,8 intracellular signalling transducers.
The aberrant epithelial Grem1 expression in Vil1-Grem1 mice suppressed physiological intestinal BMP pathway activity with reduction in detected pSMAD1,5 protein levels detected by Western blot.

Vil1-Grem1;Apc^Min mice = test: Vil1-Grem1;Apc^Min mouse polyposis model (survival); format: in vivo
Vil1-Grem1 mice = test: Vil1-Grem1 mouse polyposis model (phenotype, survival); details: for median survival: vehicle 242 days

Ab7326: allosteric inhibitory anti-Gremlin-1 antibody from a naïve human library; CDRs SEQ ID NOS 4 to 9; mouse IgG1 in mouse experiments
Blocking ability in the Hek-Id1 reporter gene assay (human Gremlin): maintained blocking ability
Restoration of intestinal epithelial pSMAD1,5 signalling ([1]; 10 mg/kg weekly subcutaneous): not
Restoration of intestinal epithelial pSMAD1,5 signalling ([1]; 30 mg/kg weekly subcutaneous): able to restore
median survival (Vil1-Grem1;Apc^Min mice; 15 mg/kg weekly, from 21 days of age, vehicle 45 days): 76.5 days
mean lifespan (Vil1-Grem1;Apc^Min mice; 30 mg/kg twice weekly from 3 weeks of age, untreated VG-min 46 days): 108 days
median survival (Vil1-Grem1;Apc^Min mice; 30 mg/kg weekly, from 21 days of age, ongoing experiment): 108 days
median survival (Vil1-Grem1;Apc^Min mice; 60 mg/kg weekly, from 21 days of age, ongoing experiment): 111 days
median survival (Vil1-Grem1;Apc^Min mice; late stage: treatment at or from the age of 35 days, antibody 30 mg/kg weekly, 5FU two i.p. daily doses of 40 mg/kg, no treatment 45 days): 49.5 days
Villus ectopic crypt formation and cell fate determination (immunohistochemical staining) (Vil1-Grem1 mice; 30 mg/kg twice weekly for 6 weeks): reversal of villus ectopic crypt formation and deranged cell fate determination
Pan-intestinal polyposis phenotype (Vil1-Grem1 mice; 30 mg/kg twice weekly subcutaneous for 6 weeks): highly significant abrogation
Animal lifespan (Vil1-Grem1 mice; 30 mg/kg weekly subcutaneous from 6 weeks of age, prolonged dosing): significantly prolongs animal lifespan
Adverse events (Vil1-Grem1 mice; Grem1 initiated polyposis models, animals treated for more than 400 days): No consistent adverse events have been observed
median survival (Vil1-Grem1 mice; early stage treatment (42 days), 30 mg/kg weekly): 540 days
median survival (Vil1-Grem1 mice; established polyposis, 30 mg/kg weekly from 5 months): 477 days
Vil1-Grem1 intestinal phenotype at timed sacrifice (Vil1-Grem1 mice; established polyposis, over 4 weeks of treatment): reversion of the Vil1-Grem1 intestinal phenotype
median survival (Vil1-Grem1 mice; late-stage treatment (120 days), 30 mg/kg weekly): 519 days
